Values quoted from earlier work as cited in US5503831A, “Lipase inhibitor derived from a defatted rice germ” (Yakurigaku Chuo Kenkyusho, priority 1993, dated 1996).

Tested on: lipase
Settings: in the presence of bile acids (sodium taurocholic acid for wheat germ protein), emulsified lipids

Row | Substance | Action on lipase in the presence of bile acids
1 | serum albumin | does not exert such an action
2 | β-lactoglobulin | does not exert such an action
